Test results published in article PMC6337391 (Molecules, 2019).

Experiments:
[1] = Reducing activity with the stable radical DPPH
Protocol: The chalcones were studied for the antioxidant activity (reducing activity RA%) by the use of the stable free radical 2,2-diphenyl-1-picrylhydrazyl radical (DPPH) at concentrations 0.05 mM after 20 and 60 min (Table 2). In this procedure, the dominant chemical reaction involved is the reduction of the DPPH radical by single electron transfer from the antioxidant. […] For the sake of comparison, we measured the RA% values for the intermediate double ethers d which were included in the Table 2.
To a solution of DPPH (final concentration 0.05 mM) in absolute ethanol an equal volume of the compounds solution in DMSO (stock solution 10 mM) dissolved in ethanol was added. Absolute ethanol was used as a control. The concentrations of the solutions of the compounds were 0.05 and 0.1 mM. The absorbance was recorded at 517 nm at room temperature after 20 and 60 min [29] (Table 2).

[2] = ABTS•+ decolorization assay
Protocol: The decolorization assay is used to evaluate the antioxidant activity. The ABTS^•+ cationic radical is derived from the direct oxidation of ABTS by potassium persulfate. No involvement of an intermediary radical is observed. The addition of electron-donating antioxidants reduce ABTS^•+.
Stock solutions of the tested compounds in DMSO (10 mM) were diluted. […] aliquots of each sample were added into the ABTS·^+ solution and the absorbance was recorded at room temperature. Trolox was used as a standard.

[3] = Inhibition of linoleic acid lipid peroxidation (AAPH)
Text: The water soluble 2,2′-azobis(2-amidinopropane) hydrochloride (AAPH) generates in vitro free radicals through spontaneous thermal decomposition. […] Overall, chalcones a, b, and c present anti-lipid peroxidation activity. […] The inhibiting activities for the rest b chalcones ranged from 15–44%. The intermediate ethers are moderate inhibitors. […] This might be correlated with the presence of the double C=C–COCH3 group. […] Both have a long ether chain in their structure.
In an aqueous solution spectrophotometrically at 234 nm the production of conjugated diene hydro peroxide by oxidation of sodium linoleate was monitored and recorded according to our previous published experimental conditions, using 10 µL of the 16 mM sodium linoleate solution added to the UV cuvette containing 930 μL of 0.05 M phosphate buffer, pH 7.4 pre-thermostated at 37 °C, under air by the addition of 50 μL of 40 mM AAPH solution, which was used as a free radical initiator. Ten microliters (10 μL) of the appropriate solutions of the tested compounds were added in the mixture, whereas same level of DMSO was used as a blank for the measurement of lipid oxidation. The rate of oxidation at 37 °C was monitored by recording the increase in absorption at 234 nm caused by conjugated diene hydro peroxides.

[4] = target: T1, soybean lipoxygenase (Glycine max, UniProt P08170); assay: biochemical; assay type: biochemical; conditions: soybean LOX, 100 μM
T1 sequence (P08170 1-839): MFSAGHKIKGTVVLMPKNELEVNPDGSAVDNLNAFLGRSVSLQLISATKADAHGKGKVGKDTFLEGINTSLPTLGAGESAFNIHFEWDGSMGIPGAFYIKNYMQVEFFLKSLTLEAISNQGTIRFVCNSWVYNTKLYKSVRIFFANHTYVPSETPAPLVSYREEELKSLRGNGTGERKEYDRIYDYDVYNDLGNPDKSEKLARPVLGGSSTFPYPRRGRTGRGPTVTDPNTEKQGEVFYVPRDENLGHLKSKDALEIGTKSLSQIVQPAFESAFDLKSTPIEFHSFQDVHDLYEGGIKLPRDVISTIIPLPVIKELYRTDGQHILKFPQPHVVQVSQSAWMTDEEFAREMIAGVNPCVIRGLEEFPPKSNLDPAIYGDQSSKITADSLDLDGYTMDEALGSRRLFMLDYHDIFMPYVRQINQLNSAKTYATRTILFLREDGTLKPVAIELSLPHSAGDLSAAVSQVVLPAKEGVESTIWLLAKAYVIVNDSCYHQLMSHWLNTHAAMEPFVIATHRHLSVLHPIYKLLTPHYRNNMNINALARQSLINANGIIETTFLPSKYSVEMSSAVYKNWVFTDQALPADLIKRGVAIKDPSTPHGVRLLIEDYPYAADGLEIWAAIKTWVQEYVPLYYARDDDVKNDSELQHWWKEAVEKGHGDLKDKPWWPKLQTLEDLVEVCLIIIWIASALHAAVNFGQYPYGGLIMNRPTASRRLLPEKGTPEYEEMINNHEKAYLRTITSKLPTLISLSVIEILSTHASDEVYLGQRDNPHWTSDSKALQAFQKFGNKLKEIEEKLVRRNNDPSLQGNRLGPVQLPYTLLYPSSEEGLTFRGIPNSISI
Text: In our experiments we used soybean lipoxygenase. Designing agents to modulate activities of the variety of so closely homologous enzymes, such as different LOXs, require an intimate knowledge of their 3D structures, as well as information about metabolism of the potential xenobiotics. […] Due to lack of sufficiently-purified human enzymes most of the research has been done on soybean LOX [52, 53]. Although this enzyme is not identical to the mammalian one, it seems that there is a sufficient qualitative correlation between values for enzyme inhibition with the two enzymes.
In vitro study was evaluated as reported previously. The tested compounds as stock solutions were dissolved in DMSO. Ten microliters (10 μL) were incubated at room temperature with sodium linoleate ([…]) and 0.2 mL of enzyme solution (1/9 × 10^−4 w/v in saline) in buffer pH 9 (tris) at room temperature (final volume 1 mL). […] Several concentrations were used for the determination of IC50 values.

[5] = Lipophilicity as RM values by RP-TLC; assay type: physicochemical; design: key: RM = log[(1/Rf) − 1]; conditions: methanol/water 70/30, SD < 10%
Text: It is well-documented and discussed in the literature that lipophilicity is a very significant physicochemical property which may critically affect distribution, bioavailability, metabolic activity and elimination, all the useful characteristics for the kinetics of biologically active compounds. Thus, we attempted to determine experimentally the lipophilicity of the synthesized compounds from the RPTLC method as RM values. The method is considered to be a reliable, fast and convenient method for expressing lipophilicity. Moreover, many calculated methods were used in order to predict the logP value.
Reversed phase TLC (RP-TLC) was performed on silica gel plates impregnated with 5% (v/v) liquid paraffin in light petroleum ether. The mobile phase was a methanol/water mixture (70/30, v/v). The plates were developed in closed chromatography tanks saturated with the mobile phase at 24 °C. Spots were detected under UV light. Five individual measurements of Rf values were recorded and used for the determination of RM using the equation RM = log [(1/Rf) − 1]. (Table 3).

[6] = test system: L929 mouse fibroblasts cells; assay: Cytotoxicity, propidium iodide fluorescence method; assay type: cell-based; conditions: 24-h incubation
Protocol: The cytotoxicity of the synthesized derivatives against L929 mouse fibroblasts cells was determined using the propidium iodide (PI) fluorescence method in the presence of different concentrations (1–100 μM) of these compounds. The results are presented in Table 4 in the form of the % cell survival values as PI% for the examined compounds. […] Chalcones c7, c8, c11, and c12 follow.
L929 mouse fibroblasts cells were cultured in EMEM supplemented with 10% horse serum, 2 mM L-glutamine, 1 mM sodium pyruvate, 0.1 mM nonessential amino acids, 1.5 g/L sodium bicarbonate, and 100 μg/mL penicillin–streptomycin at 37 °C in a humidified atmosphere with 5% CO2. L929 cells were plated into 24-well plates at a density […] and allowed to attach and grow for 24 h. The supernatant in each well then replaced with medium containing various concentrations (1, 10, 20, 50 and 100 μM) of compounds a5–12, c5–12, di, and dii–dvi, which presented the more interesting results in the in vitro experiments. After 24-h incubation, the supernatant was removed and the cells were washed with PBS. The cells were detached with 0.25% trypsin, transferred to FACS tubes, and then centrifuged (1600 rpm for 5 min) and the pellet washed with PBS. After washing, the cells in the pellet were incubated with 5 μL propidium iodide (PI) solution (1 mg/mL) for 1 min. The PI fluorescence (cell death) was determined with flow cytometry, FACS Calibur, Coulter Epics XL-MCL (Beckman, Inc., Mount Holly, NJ, USA). The analysis of flow cytometry data was performed with the WinMDI analysis program (Table 4).

SMILES	RA% 100 μM 20 min [1]	RA% 100 μM 60 min [1]	ABTS•+ Inhb. % @ 100 μM [2]	AAPH% @ 100 μM (anti-lipid peroxidation) [3]	% LOX Inhb. @ 100 μM [4]	RM [5]	1 μM Average (% pi) ± σ [6]	10 μM Average (% pi) ± σ [6]	20 μM Average (% pi) ± σ [6]	50 μM Average (% pi) ± σ [6]	100 μM Average (% pi) ± σ [6]
CN(C)c1ccc(/C=C/C=C/C(=O)c2ccc(OCCCCCCCCOc3ccc(C(=O)/C=C/C=C/c4ccc(N(C)C)cc4)cc3)cc2)cc1 [evii, (2E,2′E,4E,4′E)-1,1′-((octane-1,8-diylbis(oxy))bis(4,1-phenylene))bis(5-(4-(dimethylamino)phenyl)penta-2,4-dien-1-one)]	No	no	88%	6%	12%						
Nc1c2c(nc3ccccc13)CCCC2 [Tacrine, reference compound]			88%								
CC(/C=C/C(=O)c1ccccc1O)=C\c1ccccc1 [b8, (2E,4E)-1-(2-hydroxyphenyl)-4-methyl-5-phenylpenta-2,4-dien-1-one]	17%	3%	12%	25%	25%	−0.79					
CN(C)c1ccc(/C=C/C=C/C(=O)c2ccc(OCCCCCCOc3ccc(C(=O)/C=C/C=C/c4ccc(N(C)C)cc4)cc3)cc2)cc1 [ev, (2E,2′E,4E,4′E)-1,1′-((hexane-1,6-diylbis(oxy))bis(4,1-phenylene))bis(5-(4-(dimethylamino)phenyl)penta-2,4-dien-1-one)]	No	no	25%	14%	7%						
O=C(/C=C/C=C/c1ccccc1)c1ccccc1O [b7, (2E,4E)-1-(2-hydroxyphenyl)-5-phenylpenta-2,4-dien-1-one]	13%	0%	5%	29%	29%	−0.85					
O=C(/C=C/C=C/c1ccc([N+](=O)[O-])cc1)c1ccccc1O [b11, (2E,4E)-1-(2-hydroxyphenyl)-5-(4-nitrophenyl) penta-2,4-dien-1-one]	4%	2%	No	31%	31%	−0.91					
CC(Cc1ccc(O)c(O)c1)C(C)Cc1ccc(O)c(O)c1 (centres unmarked) [NDGA, Nordihydroguaiaretic acid, reference compound]	81%	83%									
CC(=O)c1ccc(OCCCCCCCCOc2ccc(C(C)=O)cc2)cc1 [dvii, 1,1′-((octane-1,8-diylbis(oxy))bis-(4,1-phenylene))diethanone]			No	27%	5%	−0.36					
CC(=O)c1ccc(OCCCCCCOc2ccc(C(C)=O)cc2)cc1 [dv, 1,1′-((hexane-1,6-diylbis(oxy))bis(4,1-phenylene))diethanone]			No	18%	7%	−0.53	4.47 ± 0.59%	6.83 ± 2.46%	8.05 ± 3.58%	9.69 ± 0.57%	9.69 ± 0.57%
CC(=O)c1ccc(OCCCCOc2ccc(C(C)=O)cc2)cc1 [diii, 1,1′-((butane-1,4-diylbis(oxy))bis(4,1-phenylene))diethanone]			No	29%	41%	−0.37	14.06 ± 1.36%	20 ± 3.12%	20.76 ± 3.51%	32.14 ± 6.99%	32.14 ± 6.99%
CC(=O)c1ccc(OCCCCCOc2ccc(C(C)=O)cc2)cc1 [div, 1,1′-((pentane-1,5-diylbis(oxy))bis(4,1-phenylene))diethanone]			No	30%	17%	0.23	4.89 ± 0.51%	8.56 ± 3.97%	11.86 ± 2.98%	17.05 ± 1.46%	17.05 ±1.46%
